In EP4707284A1, “HETEROCYCLIC COMPOUND AND USE THEREOF” (Otsuka Pharmaceutical Co., Ltd., priority 2023, dated 2024):

type: physicochemical; conditions: Tris-hydrochloric acid buffer (pH 7.5) 50 mmol/L, magnesium chloride 5 mmol/L, evaluation compound 1 µmol/L, 37°C, 60 minutes, average of duplicate
Procedure: The conversion from the evaluation compounds to brexpiprazole in a buffer (i.e., the stability of the evaluation compounds) was evaluated.
The Example 1 compound was dissolved in acetonitrile/water (1:1, v/v) to 10 mmol/L and further diluted with acetonitrile/water (1:1, v/v) to 100 µmol/L for use.
The other Example compounds and the Reference Example 5 compound to Reference Example 7 compound were each dissolved in DMSO to 10 mmol/L and further diluted with acetonitrile to 100 µmol/L for use, except for the following compounds.
The compounds of Examples 52, 95, 96, 117, and 130 (EX 52, EX 95, EX 96, EX 117, and EX 130) were dissolved in acetonitrile/water (8:2, v/v) to 10 mmol/L and further diluted with acetonitrile to 100 µmol/L for use.
The compound of Example 97 (EX 97) was dissolved in acetonitrile/water (8:2, v/v) to 10 mmol/L and further diluted with acetonitrile/water (8:2, v/v) to 100 µmol/L for use.
The compounds of Examples 15 and 116 (EX 15 and EX 116) were dissolved in DMSO to 1 mmol/L and further diluted with acetonitrile to 100 µmol/L for use.
These evaluation compound solutions were prepared at the time of use.
The reaction was conducted by preparing each reaction solution such that the final concentration of each component was as follows. The test was conducted in duplicate.
For the compounds of Examples 1 to 8, 10 to 19, 26 to 27, 37, 50, 87 to 89, 91, 116, 121, 123, 150, and 151 (EX 1 to EX 8, EX 10 to EX 19, EX 26 to EX 27, EX 37, EX 50, EX 87 to EX 89, EX 91, EX 116, EX 121, EX 123, EX 150, and EX 151), and the compounds of Reference Examples 5 to 7 (REX 5 to REX 7), the reaction solution without the evaluation compound (198 µl) was pre-incubated at 37°C for 3 minutes, and then each of the evaluation compound solutions (2 µl) was added and stirred; thereafter, the reaction was started at 37°C. At 0 minutes or 60 minutes after the start of the reaction, the reaction was stopped by adding and stirring a reaction stop solution (1000 µl) composed of acetonitrile/isopropanol (4:1, v/v) containing internal standard substances. However, the 0-minute reaction sample (198 µl) was prepared by adding the evaluation compound (2 µl) after adding the reaction stop solution (1000 µl). The samples after stopping the reaction were used as the measurement samples. Calibration curve samples with the same composition were prepared (final concentrations of the evaluation compounds and brexpiprazole: 0.01, 0.1, and 1 µmol/L, with the proviso that for the evaluation compounds only, the 0-minute reaction samples were also used as calibration curve samples for 1 µmol/L).
For the compounds of Examples 24 to 25, 28 to 29, 32 to 36, 40 to 49, 51 to 60, 62 to 64, 66 to 77, 80 to 86, 90, 92 to 111, 113, 115, 117 to 120, 122, 124 to 130, 132 to 147, and 152 to 160 (EX 24 to EX 25, EX 28 to EX 29, EX 32 to EX 36, EX 40 to EX 49, EX 51 to EX 60, EX 62 to EX 64, EX 66 to EX 77, EX 80 to EX 86, EX 90, EX 92 to EX 111, EX 113, EX 115, EX 117 to EX 120, EX 122, EX 124 to EX 130, EX 132 to EX 147, and EX 152 to EX 160), the reaction solution without the evaluation compound (148.5 µl) was pre-incubated at 37°C for 3 minutes, and then each of the evaluation compound solutions (1.5 µl) was added and stirred; thereafter, the reaction was started at 37°C. At 0 minutes or 60 minutes after the start of the reaction, the reaction was stopped by adding and stirring a reaction stop solution (600 µl) composed of acetonitrile/isopropanol (4:1, v/v) containing internal standard substances. However, the 0-minute reaction sample (148.5 µl) was prepared by adding the evaluation compound (1.5 µl) after adding the reaction stop solution (600 µl). The samples after stopping the reaction were used as the measurement samples. […]

| Compound | Concentration of brexpiprazole formed [nM] | Concentration of evaluation compound decreased [nM] |
| --- | --- | --- |
| CCC(=O)OC[N+]1(CCCCOc2ccc3ccc(=O)[nH]c3c2)CCN(c2cccc3sccc23)CC1.[I-] [REX 5, 4-(Benzo[b]thiophen-4-yl)-1-(4-((2-oxo-1,2-dihydroquinolin-7-yl)oxy)butyl)-1-((propionyloxy)methyl)piperazin-1-ium iodide, reference compound] | 260 | 200 |
| COCCCCOP(=O)([O-])OC[N+]1(CCCCOc2ccc3ccc(=O)[nH]c3c2)CCN(c2cccc3sccc23)CC1 [EX 50] | 0 | 10 |
| O=C(CCO)OCOP(=O)([O-])OC[N+]1(CCCCOc2ccc3ccc(=O)[nH]c3c2)CCN(c2cccc3sccc23)CC1 [EX 125] | 0 | 130 |
| CCCCCCCCOP(=O)([O-])OC[N+]1(CCCCOc2ccc3ccc(=O)[nH]c3c2)CCN(c2cccc3sccc23)CC1 [EX 37] | 0 | 60 |
| CCCCCCCC(=O)OCOP(=O)([O-])OC[N+]1(CCCCOc2ccc3ccc(=O)[nH]c3c2)CCN(c2cccc3sccc23)CC1 [EX 27] | 0 | 0 |
| COCC1CCC(COP(=O)([O-])OC[N+]2(CCCCOc3ccc4ccc(=O)[nH]c4c3)CCN(c3cccc4sccc34)CC2)CC1 (stereo not drawn) [EX 54] | 0 | 140 |
| COCCOCCOCCOC(=O)OCOP(=O)([O-])OC[N+]1(CCCCOc2ccc3ccc(=O)[nH]c3c2)CCN(c2cccc3sccc23)CC1 [EX 35] | 0 | -20 |
| CC(C)NC(=O)CCCCCCCCC(=O)OCOP(=O)([O-])OC[N+]1(CCCCOc2ccc3ccc(=O)[nH]c3c2)CCN(c2cccc3sccc23)CC1 [EX 76] | 0 | 0 |
| CC(C)(O)CCOP(=O)([O-])OC[N+]1(CCCCOc2ccc3ccc(=O)[nH]c3c2)CCN(c2cccc3sccc23)CC1 [EX 41] | 0 | 70 |
| O=c1ccc2ccc(OCCCC[N+]3(COP(=O)([O-])OCCCCCCCCCO)CCN(c4cccc5sccc45)CC3)cc2[nH]1 [EX 46] | 0 | 40 |
| CC(C)(C)C(=O)OP(=O)([O-])OC[N+]1(CCCCOc2ccc3ccc(=O)[nH]c3c2)CCN(c2cccc3sccc23)CC1 [EX 150] | 0 | 110 |
| O=c1ccc2ccc(OCCCC[N+]3(COP(=O)([O-])O)CCN(c4cccc5sccc45)CC3)cc2[nH]1 [EX 1, (4-(benzo[b]thiophen-4-yl)-1-((4-((2-oxo-1,2-dihydroquinolin-7-yl)oxy)butyl)piperazin-1-ium-1-yl)methyl hydrogen phosphate] | 0 | 0 |
| CC1(C)OCC(COC(=O)CCCCC(=O)OCOP(=O)([O-])OC[N+]2(CCCCOc3ccc4ccc(=O)[nH]c4c3)CCN(c3cccc4sccc34)CC2)CO1 [EX 75] | 0 | 70 |
| CCNP(=O)([O-])OC[N+]1(CCCCOc2ccc3ccc(=O)[nH]c3c2)CCN(c2cccc3sccc23)CC1 [EX 151] | 0 | -10 |
| CC(=O)OCCCCCCOP(=O)([O-])OC[N+]1(CCCCOc2ccc3ccc(=O)[nH]c3c2)CCN(c2cccc3sccc23)CC1 [EX 101] | 0 | 80 |
| COP(=O)([O-])OC[N+]1(CCCCOc2ccc3ccc(=O)[nH]c3c2)CCN(c2cccc3sccc23)CC1 [EX 87] | 0 | 0 |
| O=c1ccc2ccc(OCCCC[N+]3(COP(=O)([O-])OCCOCC4CC4)CCN(c4cccc5sccc45)CC3)cc2[nH]1 [EX 52] | 0 | -40 |
| O=c1ccc2ccc(OCCCC[N+]3(COP(=O)([O-])OC[C@H]4CC[C@H](CO)CC4)CCN(c4cccc5sccc45)CC3)cc2[nH]1 [EX 86] | 0 | 50 |
| CCCCCCOC(=O)OC[N+]1(CCCCOc2ccc3ccc(=O)[nH]c3c2)CCN(c2cccc3sccc23)CC1.[I-] [REX 7, 4-(Benzo[b]thiophen-4-yl)-1-((((hexyloxy)carbonyl)oxy)methyl)-1-(4-((2-oxo-1,2-dihydroquinolin-7-yl)oxy)butyl)piperazin-1-ium iodide, reference compound] | 240 | 270 |

More lines, now with the values ahead:

| Concentration of brexpiprazole formed [nM] | Concentration of evaluation compound decreased [nM] | Compound |
| --- | --- | --- |
| 0 | -20 | CCOCCOC(=O)[C@@H](C)OP(=O)([O-])OC[N+]1(CCCCOc2ccc3ccc(=O)[nH]c3c2)CCN(c2cccc3sccc23)CC1 [EX 109] |
| 0 | -10 | CCOCCC(=O)OCOP(=O)([O-])OC[N+]1(CCCCOc2ccc3ccc(=O)[nH]c3c2)CCN(c2cccc3sccc23)CC1 [EX 29] |
| 0 | 70 | CCOCCOCCOC(=O)OCOP(=O)([O-])OC[N+]1(CCCCOc2ccc3ccc(=O)[nH]c3c2)CCN(c2cccc3sccc23)CC1 [EX 134] |
| 0 | 10 | COCCOCCOC(=O)OCOP(=O)([O-])OC[N+]1(CCCCOc2ccc3ccc(=O)[nH]c3c2)CCN(c2cccc3sccc23)CC1 [EX 34] |
| 0 | -30 | CC(C)COP(=O)([O-])OC[N+]1(CCCCOc2ccc3ccc(=O)[nH]c3c2)CCN(c2cccc3sccc23)CC1 [EX 90] |
| 0 | -10 | O=c1ccc2ccc(OCCCC[N+]3(COP(=O)([O-])OCCOCCO)CCN(c4cccc5sccc45)CC3)cc2[nH]1 [EX 93] |
| 0 | -20 | CCOCCOCCOP(=O)([O-])OC[N+]1(CCCCOc2ccc3ccc(=O)[nH]c3c2)CCN(c2cccc3sccc23)CC1 [EX 98] |
| 0 | 140 | CC(C)OCCOC(=O)OCOP(=O)([O-])OC[N+]1(CCCCOc2ccc3ccc(=O)[nH]c3c2)CCN(c2cccc3sccc23)CC1 [EX 133] |
| 0 | 120 | COCCCOC(=O)OCOP(=O)([O-])OC[N+]1(CCCCOc2ccc3ccc(=O)[nH]c3c2)CCN(c2cccc3sccc23)CC1 [EX 139] |
| 0 | 20 | CCOC(=O)CNP(=O)([O-])OC[N+]1(CCCCOc2ccc3ccc(=O)[nH]c3c2)CCN(c2cccc3sccc23)CC1 [EX 154] |

same assay, conditions: Tris-hydrochloric acid buffer (pH 7.5), 37°C, 60 minutes

| Compound | stability in the buffer / conversion to brexpiprazole (in words) |
| --- | --- |
| CCC(=O)OC[N+]1(CCCCOc2ccc3ccc(=O)[nH]c3c2)CCN(c2cccc3sccc23)CC1.[I-] [REX 5, 4-(Benzo[b]thiophen-4-yl)-1-(4-((2-oxo-1,2-dihydroquinolin-7-yl)oxy)butyl)-1-((propionyloxy)methyl)piperazin-1-ium iodide, reference compound] | clearly degraded to brexpiprazole |
| CCCCCCOC(=O)OC[N+]1(CCCCOc2ccc3ccc(=O)[nH]c3c2)CCN(c2cccc3sccc23)CC1.[I-] [REX 7, 4-(Benzo[b]thiophen-4-yl)-1-((((hexyloxy)carbonyl)oxy)methyl)-1-(4-((2-oxo-1,2-dihydroquinolin-7-yl)oxy)butyl)piperazin-1-ium iodide, reference compound] | clearly degraded to brexpiprazole |
